What follows are compounds tested on Clonic Seizures Caused by Pentylenetetrazole in Rats (assay: Protection against clonic seizures caused by pentylenetetrazole in rats). Conditions: Rattus norvegicus; dose 25.0 mg/kg, oral or i.p.; pentylenetetrazole 23 mg/kg i.v. at 30 or 60 min; read-out: % of Rats Protected.
Type: in vivo
Procedure: The anti-anxiety and anticonvulsant properties of the novel compounds of the present invention have been established in a test which indicates anxiolytic and antiepileptic activity by the measure of protection from convulsions resulting from the administration of pentylenetetrazole. Single or graded dose levels of the test compounds were administered orally or intraperitoneally in a 2% starch vehicle, containing 0.5% v/v polyethylene glycol and one drop of Polysorbate 80 to groups of at least 4 rats. At 30 or 60 minutes, the rats were treated intravenously with pentylenetetrazole at a dose of 23 mg/kg of body weight. This dose is estimated to cause clonic seizures in 99% of unprotected rats. It has been reported [R. T. Hill and D. H. Tedeschi, "Animal Testing and Screening Procedures in Evaluating Psychotropic Drugs" in "An Introduction to Psychopharmacology", Eds. R. R. Rech and K. E. Moore, Raven Press, New York, pp 237-288 (1971)] that there is a high degree of correlation between antagonism of pentylenetetrazole seizures in rats and anti-anxietyor anticonvulsant effects in higher warm-blooded animals.

Row | SMILES | responders at 25 mg/kg
1 | O=C(c1ccc(C(F)(F)F)cc1)c1cnn2c(-c3ccc(Cl)c(Cl)c3)ccnc12 [[7-(3,4-dichlorophenyl)pyrazolo[1,5-a]pyrimidin-3-yl][4-(trifluoromethyl)phenyl]methanone] | 50%
2 | O=C(c1cccs1)c1cnn2c(-c3ccc(C(F)(F)F)cc3)ccnc12 [2-thienyl[7-[4-(trifluoromethyl)phenyl]pyrazolo[1,5-a]pyrimidin-3-yl]methanone] | 25%
3 | O=C(c1cc(Cl)ccc1Cl)c1cnn2c(-c3ccc(F)cc3)ccnc12 [(2,5-dichlorophenyl)[7-(4-fluorophenyl)pyrazolo[1,5-a]pyrimidin-3-yl]methanone] | 25%
4 | O=C(c1ccsc1)c1cnn2c(-c3ccncc3)ccnc12 [[7-(4-pyridinyl)pyrazolo[1,5-a]pyrimidin-3-yl]-3-thienylmethanone] | 50%
5 | Cc1ccccc1C(=O)c1cnn2c(-c3ccc(C(F)(F)F)cc3)ccnc12 [(2-methylphenyl)[7-[4-(trifluoromethyl)phenyl]pyrazolo[1,5-a]pyrimidin-3-yl]methanone] | 25%
6 | Cc1cc(-c2cccc(C(F)(F)F)c2)n2ncc(C(=O)c3ccc(F)cc3)c2n1 [(4-fluorophenyl)[5-methyl-7-[3-(trifluoromethyl)phenyl]pyrazolo[1,5-a]pyrimidin-3-yl]methanone] | 25%
7 | O=C(c1ccsc1)c1cnn2c(-c3cccc(C(F)(F)F)c3)ccnc12 [3-thienyl[7-[3-(trifluoromethyl)phenyl]pyrazolo[1,5-a]pyrimidin-3-yl]methanone] | 75%
8 | O=C(c1cccc(C(F)(F)F)c1)c1cnn2c(-c3ccc(F)cc3)ccnc12 [[7-(4-fluorophenyl)pyrazolo[1,5-a]pyrimidin-3-yl][3-(trifluoromethyl)phenyl]methanone] | 25%
9 | COc1ccc(C(=O)c2cnn3c(-c4ccc[n+]([O-])c4)ccnc23)cc1 [(4-Methoxyphenyl)[7-(3-pyridinyl)pyrazolo[1,5-a]pyrimidin-3-yl]methanone, pyridine-1-oxide] | 25%
10 | COc1ccccc1C(=O)c1cnn2c(-c3cccnc3)ccnc12 [(2-methoxyphenyl)[7-(3-pyridinyl)pyrazolo[1,5-a]pyrimidin-3-yl]methanone] | 75%
11 | O=C(c1cc(Cl)ccc1Cl)c1cnn2c(-c3ccncc3)ccnc12 [(2,5-dichlorophenyl)[7-(4-pyridinyl)pyrazolo[1,5-a]pyrimidin-3-yl]methanone] | 25%
12 | Cc1nn2c(-c3ccncc3)ccnc2c1C(=O)c1ccccc1 [[2-methyl-7-(4-pyridinyl)pyrazolo[1,5-a]pyrimidin-3-yl]phenylmethanone] | 25%
13 | N#Cc1ccc(-c2ccnc3c(C(=O)c4ccc(F)cc4)cnn23)cc1 [4-[3-(4-fluorobenzoyl)pyrazolo[1,5-a]pyrimidin-7-yl]benzonitrile] | 50%
14 | O=C(c1cccc(Cl)c1)c1cnn2c(-c3cccnc3)ccnc12 [(3-chlorophenyl)[7-(3-pyridinyl)pyrazolo[1,5-a]pyrimidin-3-yl]methanone] | 50%
15 | CCOc1ccc(C(=O)c2cnn3c(-c4cccnc4)ccnc23)cc1 [(4-ethoxyphenyl)[7-(3-pyridinyl)pyrazolo[1,5-a]pyrimidin-3-yl]methanone] | 25%
16 | COc1cc(C(=O)c2cnn3c(-c4cccnc4)ccnc23)cc(OC)c1OC [[7-(3-pyridinyl)pyrazolo[1,5-a]pyrimidin-3-yl](3,4,5-trimethoxyphenyl)methanone] | 25%
17 | O=C(c1ccc2c(c1)OCO2)c1cnn2c(-c3ccncc3)ccnc12 [1,3-benzodioxol-5-yl[7-(4-pyridinyl)pyrazolo[1,5-a]pyrimidin-3-yl]methanone] | 25%
18 | COc1ccccc1C(=O)c1cnn2c(-c3ccc(F)cc3)ccnc12 [[7-(4-fluorophenyl)pyrazolo[1,5-a]pyrimidin-3-yl](2-methoxyphenyl)methanone] | 50%
19 | CSc1ccc(-c2ccnc3c(C(=O)c4ccccc4)cnn23)cc1 [[7-[4-(methylthio)phenyl]pyrazolo[1,5-a]pyrimidin-3-yl]phenylmethanone] | 50%
20 | COc1cc(C(=O)c2cnn3c(-c4ccncc4)ccnc23)cc(OC)c1OC [[7-(4-pyridinyl)pyrazolo[1,5-a]pyrimidin-3-yl](3,4,5-trimethoxyphenyl)methanone] | 25%
21 | Cc1ccc(C(=O)c2cnn3c(-c4cccnc4)ccnc23)s1 [(5-methyl-2-thienyl)[7-(3-pyridinyl)pyrazolo[1,5-a]pyrimidin-3-yl]methanone] | 25%
22 | COc1ccc(C(=O)c2cnn3c(-c4ccncc4)ccnc23)cc1 [(4-methoxyphenyl)[7-(4-pyridinyl)pyrazolo[1,5-a]pyrimidin-3-yl]methanone] | 25%

Row | SMILES | responders at 25 mg/kg
23 | Cc1cc(-c2cccc(C(F)(F)F)c2)n2ncc(C(=O)c3ccc(Cl)cc3)c2n1 [(4-chlorophenyl)[5-methyl-7-[3-(trifluoromethyl)phenyl]pyrazolo[1,5-a]pyrimidin-3-yl]methanone] | 25%
24 | O=C(c1cccc(Cl)c1)c1cnn2c(-c3ccncc3)ccnc12 [(3-chlorophenyl)[7-(4-pyridinyl)pyrazolo[1,5-a]pyrimidin-3-yl]methanone] | 50%
25 | O=C(c1ccccc1)c1cnn2c(-c3ccc[n+]([O-])c3)ccnc12 [Phenyl[7-(3-pyridinyl)pyrazolo[1,5-a]pyrimidin-3-yl]methanone, pyridine-1-oxide] | 25%
26 | O=C(c1ccc(C(F)(F)F)cc1)c1cnn2c(-c3ccc(C(F)(F)F)cc3)ccnc12 [[4-(trifluoromethyl)phenyl][7-[4-(trifluoromethyl)phenyl]pyrazolo[1,5-a]pyrimidin-3-yl]methanone] | 25%
27 | COc1ccc(C(=O)c2cnn3c(-c4ccncc4)ccnc23)cc1OC [(3,4-dimethoxyphenyl)[7-(4-pyridinyl)pyrazolo[1,5-a]pyrimidin-3-yl]methanone] | 50%
28 | Cc1cnc2c(C(=O)c3ccc(F)cc3)cnn2c1-c1cccnc1 [(4-fluorophenyl)[6-methyl-7-(3-pyridinyl)pyrazolo[1,5-a]pyrimidin-3-yl]methanone] | 75%
29 | Cc1cccc(C(=O)c2cnn3c(-c4ccncc4)ccnc23)c1 [(3-methylphenyl)[7-(4-pyridinyl)pyrazolo[1,5-a]pyrimidin-3-yl]methanone] | 100%
30 | Cc1cnc2c(C(=O)c3ccccc3)cnn2c1-c1cccc(C(F)(F)F)c1 [[6-methyl-7-[3-(trifluoromethyl)phenyl]pyrazolo[1,5-a]pyrimidin-3-yl]phenylmethanone] | 25%
31 | Cc1ccccc1C(=O)c1cnn2c(-c3cccnc3)ccnc12 [(2-methylphenyl)[7-(3-pyridinyl)pyrazolo[1,5-a]pyrimidin-3-yl]methanone] | 25%
32 | O=C(c1cc(Cl)ccc1Cl)c1cnn2c(-c3cccnc3)ccnc12 [(2,5-dichlorophenyl)[7-(3-pyridinyl)pyrazolo[1,5-a]pyrimidin-3-yl]methanone] | 25%
33 | O=C(c1ccc2ccccc2c1)c1cnn2c(-c3cccnc3)ccnc12 [2-naphthalenyl[7-(3-pyridinyl)pyrazolo[1,5-a]pyrimidin-3-yl]methanone] | 25%
34 | CN(C)c1ccc(C(=O)c2cnn3c(-c4ccncc4)ccnc23)cc1 [[4-(dimethylamino)phenyl][7-(4-pyridinyl)pyrazolo[1,5-a]pyrimidin-3-yl]methanone] | 75%
35 | COc1cccc(C(=O)c2cnn3c(-c4ccncc4)ccnc23)c1 [(3-methoxyphenyl)[7-(4-pyridinyl)pyrazolo[1,5-a]pyrimidin-3-yl]methanone] | 50%
36 | O=C(c1ccccc1Cl)c1cnn2c(-c3ccncc3)ccnc12 [(2-chlorophenyl)[7-(4-pyridinyl)pyrazolo[1,5-a]pyrimidin-3-yl]methanone] | 25%
37 | O=C(c1ccc(F)cc1)c1cnn2c(-c3ccc(C(F)(F)F)cc3)ccnc12 [(4-fluorophenyl)[7-[4-(trifluoromethyl)phenyl]pyrazolo[1,5-a]pyrimidin-3-yl]methanone] | 50%
38 | COc1ccc(C(=O)c2cnn3c(-c4cc(OC)c(OC)c(OC)c4)ccnc23)cc1OC [(3,4-dimethoxyphenyl)[7-(3,4,5-trimethoxyphenyl)pyrazolo[1,5-a]pyrimidin-3-yl]methanone] | 75%
39 | O=C(c1cccs1)c1cnn2c(-c3cccc(F)c3)ccnc12 [[7-(3-fluorophenyl)pyrazolo[1,5-a]pyrimidin-3-yl]-2-thienylmethanone] | 25%
40 | O=C(c1ccccn1)c1cnn2c(-c3ccc(C(F)(F)F)cc3)ccnc12 [2-pyridinyl[7-[4-(trifluoromethyl)phenyl]pyrazolo[1,5-a]pyrimidin-3-yl]methanone] | 25%
41 | O=C(c1ccncc1)c1cnn2c(-c3ccc(F)cc3)ccnc12 [[7-(4-fluorophenyl)pyrazolo[1,5-a]pyrimidin-3-yl]-4-pyridinylmethanone] | 75%
42 | O=C(c1cccc(Cl)c1)c1cnn2c(-c3ccc(F)cc3)ccnc12 [(3-chlorophenyl)[7-(4-fluorophenyl)pyrazolo[1,5-a]pyrimidin-3-yl]methanone] | 25%
43 | Cc1ccccc1C(=O)c1cnn2c(-c3ccncc3)ccnc12 [(2-methylphenyl)[7-(4-pyridinyl)pyrazolo[1,5-a]pyrimidin-3-yl]methanone] | 25%

From patent US4521422A, “Aryl and heteroaryl[7-(aryl and heteroaryl)pyrazolo[1,5-a]pyrimidin-3-yl]methanones” (American Cyanamid Company, priority 1984, dated 1985)
